In patent publication US9242981B2, “Fused pyrazole derivatives as novel ERK inhibitors” (Merck Sharp & Dohme Corp., priority 2010, dated 2016):

Each compound was assayed against Mouse ERK2 protein (Mus musculus (Mouse), UniProt P63085) (assay: Coupled MEK1/ERK2 IMAP assay or Active ERK2 IMAP assay). Conditions: Table 1, class symbols, 30 μM ATP.
Assay type: biochemical
Description: 14 μl of kinase buffer (10 mM Tris.HCl pH 7.2, 10 mM MgCl2, 0.01% Tween-20, 1 mM DTT) containing 0.4 ng unphosphorylated Mouse ERK2 protein is added to each well of a black 384-well assay plate. […] DMSO concentration during initial incubation is 6.7%. […] DMSO concentration during ERK activation was 4%. After one hour, reactions are terminated by addition of 60 μl IMAP detections beads in binding buffer (Molecular Devices). Binding is allowed to equilibrate for 30 minutes before reading the plate on an LJL Analyst Fluorescence Polarization plate reader.
Activated ERK2 activity was also determined in the IMAP assay format using the procedure outlined above. […] Reactions proceeded for 30 minutes before termination by addition of […] IMAP detection beads in binding buffer. Plates were read as above after 30 minute binding equilibration.

Mouse ERK2 protein, sequence (P63085 whole entry): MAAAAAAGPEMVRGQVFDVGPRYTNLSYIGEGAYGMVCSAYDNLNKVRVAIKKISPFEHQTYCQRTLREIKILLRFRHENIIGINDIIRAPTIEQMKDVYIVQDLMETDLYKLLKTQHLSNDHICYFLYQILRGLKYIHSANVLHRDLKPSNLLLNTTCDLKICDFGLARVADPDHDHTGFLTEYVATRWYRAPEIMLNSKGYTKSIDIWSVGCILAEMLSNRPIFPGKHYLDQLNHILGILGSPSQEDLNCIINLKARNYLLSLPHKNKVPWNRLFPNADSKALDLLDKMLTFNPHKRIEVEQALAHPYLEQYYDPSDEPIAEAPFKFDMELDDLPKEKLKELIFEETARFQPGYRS

Structure (SMILES) | IC50 [µM]
Cc1nc2ccc(-c3n[nH]c4c3CN(C(=O)N[C@@H]3CCCN(Cc5csc6ccccc56)C3)CC4)cc2s1 [Compound 174, N-[1-(benzo[b]thien-3-ylmethyl)-3(R)-piperidinyl]-1,4,6,7-tetrahydro-3-(2-methyl-6-benzothiazolyl)-5H-pyrazolo[4,3-c]pyridine-5-carboxamide] | < 0.02
COc1cccc(F)c1CN1[C@H]2CC[C@@H](NC(=O)N3CCc4[nH]nc(-c5ccnc(C)c5)c4C3)[C@@H]1CC2 [Compound 162, N-[exo-8-[(2-fluoro-6-methoxyphenyl)methyl]-8-azabicyclo[3.2.1]oct-2-yl]-1,4,6,7-tetrahydro-3-(2-methyl-4-pyridinyl)-5H-pyrazolo[4,3-c]pyridine-5-carboxamide] | 0.021 to 0.1
COc1ccc2ccccc2c1CN1CCC[C@@H](NC(=O)N2CCc3[nH]nc(-c4ccnc(C)c4)c3C2)C1 [Compound 97, 1,4,6,7-tetrahydro-N-[1-[(2-Methoxy-1-naphthalenyl)-methyl]-3(R)-piperidinyl]-3-(2-methyl-4-pyridinyl)-5H-pyrazolo[4,3-c]pyridine-5-carboxamide] | 0.021 to 0.1
Cc1cc(-c2n[nH]c3c2CN(C(=O)NC2CC(C)CN(Cc4ccccc4Cl)C2)CC3)ccn1 (stereo not shown) [Compound 103, N-[1-[(2-chlorophenyl)methyl]-5-methyl-3-piperidinyl]-1,4,6,7-tetrahydro-3-(2-methyl-4-pyridinyl)-5H-pyrazolo[4,3-c]pyridine-5-carboxamide] | 0.021 to 0.1
Cc1nc2cc(-c3n[nH]c4c3CN(C(=O)N[C@@H]3CCCN(Cc5c(F)cccc5F)C3)CC4)ccc2s1 [Compound 188, N-[1-[(2,6-difluorophenyl)methyl]-3(R)-piperidinyl]-1,4,6,7-tetrahydro-3-(2-methyl-5-benzothiazolyl)-5H-pyrazolo[4,3-c]pyridine-5-carboxamide] | 0.101 to 1
O=C(Cc1ccccc1Oc1ccccc1)N1CCc2[nH]nc(-c3ccncc3)c2C1 [Compound 29, 4,5,6,7-tetrahydro-5-[(2-phenoxyphenyl)acetyl]-3-(4-pyridinyl)-1H-pyrazol[4,3-c]pyridine] | 0.101 to 1
COc1cccc(F)c1CN1CCC(F)C(NC(=O)N2CCc3[nH]nc(-c4ccc5nccn5c4)c3C2)C1 (stereo not shown) [Compound 150, N-[4-fluoro-1-[(2-fluoro-6-methoxyphenyl)methyl]-3-piperidinyl]-1,4,6,7-tetrahydro-3-imidazo[1,2-a]pyridin-6-yl-5H-pyrazolo[4,3-c]pyridine-5-carboxamide] | < 0.02
Cn1cnc(CC(=O)N2CCc3[nH]nc(-c4ccncc4)c3C2)c1 [Compound 6, 4,5,6,7-tetrahydro-5-[(1-methyl-1H-imidazol-4-yl)acetyl]-3-(4-pyridinyl)-1H-pyrazolo[4,3-c]pyridine] | 1 to 100
CC1CC(NC(=O)N2CCc3[nH]nc(-c4ccncc4)c3C2)CN(Cc2ccccc2F)C1 (stereo not shown) [Compound 52, N-[1-[(2-fluorophenyl)-methyl]-5-methyl-3-piperidinyl]-1,4,6,7-tetrahydro-3-(4-pyridinyl)-5H-pyrazolo[4,3-c]pyridine-5-carboxamide] | 0.021 to 0.1
O=C(N[C@H]1CNC[C@@H]1c1ccccc1)[C@H]1CCc2[nH]nc(-c3ccncc3)c2C1 (racemic) [Compound 13, 4,5,6,7-tetrahydro-N-(trans-4-phenyl-3-pyrrolidinyl)-3-(4-pyridinyl)-1H-indazole-5(S)-carboxamide] | 0.021 to 0.1
Cc1ccccc1[C@@H]1CN(C)C[C@H]1NC(=O)N1CCc2[nH]nc(-c3ccc(F)cc3)c2C1 (racemic) [Compound 141, 3-(4-fluorophenyl)-1,4,6,7-tetrahydro-N-[trans-1-methyl-4-(2-methylphenyl)-3-pyrrolidinyl]-5H-pyrazolo[4,3-c]pyridine-5-carboxamide] | < 0.02
COc1cccc(F)c1CN1CC(C)CC(NC(=O)N2CCc3[nH]nc(-c4ccnc(C)c4)c3C2)C1 (stereo not shown) [Compound 90, N-[1-[(2-fluoro-6-methoxyphenyl)methyl]-5-methyl-3-piperidinyl]-1,4,6,7-tetrahydro-3-(2-methyl-4-pyridinyl)-5H-pyrazolo[4,3-c]pyridine-5-carboxamide] | 0.021 to 0.1
CC(C(=O)N1CCc2[nH]nc(-c3ccncc3)c2C1)c1ccccc1 (stereo not shown) [Compound 40, 4,5,6,7-tetrahydro-5-(1-oxo-2-phenylpropyl)-3-(4-pyridinyl)-1H-pyrazolo[4,3-c]pyridine] | 1 to 100
O=C(Cc1ccccn1)N1CCc2[nH]nc(-c3ccncc3)c2C1 [Compound 30, 4,5,6,7-tetrahydro-3-(4-pyridinyl)-5-(2-pyridinylacetyl)-1H-pyrazolo[4,3-c]pyridine] | 0.101 to 1
Cc1cc(-c2n[nH]c3c2CN(C(=O)NC2CC(C)CN(Cc4cc5ccccc5n4C)C2)CC3)ccn1 (stereo not shown) [Compound 102, 1,4,6,7-tetrahydro-N-[5-methyl-1-[(1-methyl-1H-indol-2-yl)methyl]-3-piperidinyl]-3-(2-methyl-4-pyridinyl)-5H-pyrazolo[4,3-c]pyridine-5-carboxamide] | 0.021 to 0.1
Cc1cc(-c2n[nH]c3c2CN(C(=O)NC2CC(C)CN(Cc4c(F)cccc4C(F)(F)F)C2)CC3)ccn1 (stereo not shown) [Compound 95, N-[1-[[2-fluoro-6-(trifluoro-methyl)phenyl]methyl]-5-methyl-3-piperidinyl]-1,4,6,7-tetrahydro-3-(2-methyl-4-pyridinyl)-5H-pyrazolo[4,3-c]pyridine-5-carboxamide] | 0.101 to 1
O=C(N[C@H]1CNC[C@@H]1c1ccccc1)C1CCc2[nH]nc(-c3ccc4ncsc4c3)c2C1 (mixture of isomers) [Compound 43, 3-(6-benzothiazolyl)-4,5,6,7-tetrahydro-N-(trans-4-phenyl-3-pyrrolidinyl)-1H-indazole-5-carboxamide] | 1 to 100
CN1C[C@@H](NC(=O)N2CCc3[nH]nc(-c4ccncc4)c3C2)[C@H](c2ccccc2C(F)(F)F)C1 (racemic) [Compound 149, 1,4,6,7-tetrahydro-N-[trans-1-methyl-4-[2-(trifluoromethyl)phenyl]-3-pyrrolidinyl]-3-(4-pyridinyl)-5H-pyrazolo[4,3-c]pyridine-5-carboxamide] | < 0.02
CCn1cc(Cl)c(NC(=O)C2CCc3[nH]nc(-c4ccncc4)c3C2)n1 (stereo not shown) [Compound 2, N-(4-chloro-1-ethyl-1H-pyrazol-3-yl)-4,5,6,7-tetrahydro-3-(4-pyridinyl)-1H-indazole-5-carboxamide] | 1 to 100
COc1ccc(-c2n[nH]c3c2CN(C(=O)N[C@@H]2CCCN(Cc4c(C)cccc4C)C2)CC3)cn1 [Compound 125, N-[1-[(2,6-dimethylphenyl)-methyl]-3(R)-piperidinyl]-1,4,6,7-tetrahydro-3-(6-Methoxy-3-pyridinyl)-5H-pyrazolo[4,3-c]pyridine-5-carboxamide] | 0.021 to 0.1
COC(=O)c1ccccc1CN1CCC[C@@H](NC(=O)N2CCc3[nH]nc(-c4ccncc4)c3C2)C1 [Compound 72, methyl 2-[[3(R)-[[[1,4,6,7-tetrahydro-3-(4-pyridinyl)-5H-pyrazolo[4,3-c]pyridin-5-yl]carbonyl]amino]-1-piperidinyl]methyl]benzoate] | 0.021 to 0.1

Same assay, conditions: Table 2, 30 μM ATP

Structure (SMILES) | IC50 [µM]
Cc1ccccc1[C@@H]1CN(C)C[C@H]1NC(=O)N1CCc2[nH]nc(-c3ccc4c(c3)CCO4)c2C1 (racemic) [Compound 145, 3-(2,3-dihydro-5-benzofuranyl)-1,4,6,7-tetrahydro-N-[trans-1-methyl-4-(2-methylphenyl)-3-pyrrolidinyl]-5H-pyrazolo[4,3-c]pyridine-5-carboxamide] | 0.00152
